Measurements published in patent US8796256B2 (Janssen Pharmaceutica NV, priority 2010, dated 2014).

Molecular target: T1, ERR1 (also known as ERR-α or ERR-1) (Homo sapiens, UniProt P11474)
T1 sequence (P11474 193-421 limits assumed): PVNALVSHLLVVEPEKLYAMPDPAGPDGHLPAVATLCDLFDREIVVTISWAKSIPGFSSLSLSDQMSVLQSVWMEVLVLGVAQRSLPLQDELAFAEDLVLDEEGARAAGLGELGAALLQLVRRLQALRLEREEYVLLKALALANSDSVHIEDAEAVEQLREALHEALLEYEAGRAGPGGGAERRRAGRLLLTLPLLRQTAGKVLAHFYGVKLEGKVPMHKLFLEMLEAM
Experiment: TR-FRET assay (disruption of co-activator peptide binding to ERR1 LBD)
Type: biochemical
Details: 6 nM 6His-ERR1LBD, 6 nM GST-SRC-2 peptide; average of 3 independent experiments
Experimental: Time-Resolved Fluorescence Resonance Energy Transfer (TR-FRET) experiments were performed to examine the functional response of ERR1 (also known as ERR-α or ERR-1) ligands. The TR-FRET assay described herein relied on the conformation of ERR1 for binding to a co-activator peptide: when a test compound binds to ERR1 and alters its conformation, it can disrupt the binding of the co-activator peptide. The components of this homogeneous secondary assay included: the ^6His-tagged-ERR1LBD, a GST-labeled-hSRC2 co-activator polypeptide and a fluorescent donor/acceptor pair from CIS bio international htrf/bioassays (Bedford, Mass.) using both an α-GST Europium (Eu) Cryptate label and an α^6His-XL665 (allophycocyanin) fluorophore.
For TR-FRET measurements, the reaction was buffered in 25 mM Tris pH 8, 2.5 mM Hepes, 20 mM KCl, 1 mM DTT, and 0.05 mg/mL BSA (delipidated). The final concentrations of reagents were 6 nM of ERR1LBD, 6 nM GST-SRC-2 peptide, 30 nM Eu cryptate, and 7.5 nM a^6His-XL665. Reactions were allowed to reach equilibrium at 25° C. for 4-18 h before collecting data on the Analyst from LJL Biosystems (Molecular Devices Sunnyvale, Calif.). […] Dose response curves were fitted using a hyperbolic equation and the data reported is the average of 3 independent experiments.

EC50	SMILES
15 nM	O=C1S/C(=C\c2ccc3c(cnn3Cc3ccc(Cl)cc3C(F)(F)F)c2)C(=O)N1[C@@H]1CNCC[C@@H]1F (relative stereo) [Compound 199, (5Z)-5-({1-[4-Chloro-2-(trifluoromethyl)benzyl]-1H-indazol-5-yl}methylidene)-3-(cis-4-fluoropiperidin-3-yl)-1,3-thiazolidine-2,4-dione]
14 nM	O=C1S/C(=C\c2ccc3c(cnn3Cc3ccc(C(F)(F)F)cc3C(F)(F)F)c2)C(=O)N1[C@@H]1CNCC[C@@H]1F (relative stereo) [Compound 200, (5Z)-5-({1-[2,4-Bis(trifluoromethyl)benzyl]-1H-indazol-5-yl}methylidene)-3-(cis-4-fluoropiperidin-3-yl)-1,3-thiazolidine-2,4-dione]
61 nM	O=C1S/C(=C\c2ccc3c(cnn3Cc3ccc(Cl)cc3C(F)(F)F)c2)C(=O)N1[C@H]1CCNC[C@H]1F (relative stereo) [Compound 201, (5Z)-5-({1-[4-Chloro-2-(trifluoromethyl)benzyl]-1H-indazol-5-yl}methylidene)-3-(cis-3-fluoropiperidin-4-yl)-1,3-thiazolidine-2,4-dione]
67 nM	O=C1S/C(=C\c2ccc3c(cnn3Cc3ccc(Cl)cc3C(F)(F)F)c2)C(=O)N1[C@@H]1CCN[C@@H](CO)C1 (relative stereo) [Compound 269, (5Z)-5-({1-[4-Chloro-2-(trifluoromethyl)benzyl]-1H-indazol-5-yl}methylidene)-3-[trans-2-(hydroxymethyl)piperidin-4-yl]-1,3-thiazolidine-2,4-dione]
25 nM	O=C1S/C(=C\c2ccc3c(cnn3Cc3ccc(Cl)cc3C(F)(F)F)c2)C(=O)N1[C@@H]1CCNC[C@H]1O (relative stereo) [Compound 270, (5Z)-5-({1-[4-Chloro-2-(trifluoromethyl)-benzyl]-1H-indazol-5-yl}methylidene)-3-[trans-3-hydroxypiperidin-4-yl]-1,3-thiazolidine-2,4-dione]
38 nM	O=C1S/C(=C\c2ccc3c(cnn3Cc3ccc(C(F)(F)F)cc3C(F)(F)F)c2)C(=O)N1[C@@H]1CCNC[C@H]1O (relative stereo) [Compound 271, (5Z)-5-({1-[2,4-Bis(trifluoromethyl)benzyl]-1H-indazol-5-yl}methylidene)-3-[trans-3-hydroxypiperidin-4-yl]-1,3-thiazolidine-2,4-dione]
153 nM	O=C1S/C(=C\c2ccc3c(cnn3Cc3ccc(F)cc3C(F)(F)F)c2)C(=O)N1[C@@H]1CCNC[C@H]1O (relative stereo) [Compound 272, (5Z)-5-({1-[4-Fluoro-2-(trifluoromethyl)-benzyl]-1H-indazol-5-yl}methylidene)-3-[trans-3-hydroxypiperidin-4-yl]-1,3-thiazolidine-2,4-dione]
34 nM	O=C1S/C(=C\c2ccc3c(cnn3Cc3ccc(Cl)cc3C(F)(F)F)c2)C(=O)N1[C@@H]1CCNC[C@H]1F (relative stereo) [Compound 273, (5Z)-5-({1-[4-Chloro-2-(trifluoromethyl)benzyl]-1H-indazol-5-yl}methylidene)-3-(trans-3-fluoropiperidin-4-yl)-1,3-thiazolidine-2,4-dione]
88 nM	O=C1S/C(=C\c2ccc3c(cnn3Cc3ccc(C(F)(F)F)cc3C(F)(F)F)c2)C(=O)N1[C@@H]1CCNC[C@H]1F (relative stereo) [Compound 274, (5Z)-5-({1-[2,4-Bis(trifluoromethyl)benzyl]-1H-indazol-5-yl}methylidene)-3-(trans-3-fluoropiperidin-4-yl)-1,3-thiazolidine-2,4-dione]
23 nM	CN1CC[C@@H](N2C(=O)S/C(=C\c3ccc4c(cnn4Cc4ccc(Cl)cc4C(F)(F)F)c3)C2=O)[C@H](O)C1 (relative stereo) [Compound 275, (5Z)-5-({1-[4-Chloro-2-(trifluoromethyl)-benzyl]-1H-indazol-5-yl}methylidene)-3-[trans-3-hydroxy-1-methylpiperidin-4-yl]-1,3-thiazolidine-2,4-dione]
29 nM	CN1CC[C@@H](N2C(=O)S/C(=C\c3ccc4c(cnn4Cc4ccc(C(F)(F)F)cc4C(F)(F)F)c3)C2=O)[C@H](O)C1 (relative stereo) [Compound 276, (5Z)-5-({1-[2,4-Bis(trifluoromethyl)benzyl]-1H-indazol-5-yl}methylidene)-3-[trans-3-hydroxy-l-methylpiperidin-4-yl]-1,3-thiazolidine-2,4-dione]
71 nM	CN1CC[C@@H](N2C(=O)S/C(=C\c3ccc4c(cnn4Cc4ccc(C(F)(F)F)cc4C(F)(F)F)c3)C2=O)[C@H](F)C1 (relative stereo) [Compound 278, (5Z)-5-({1-[2,4-Bis(trifluoromethyl)benzyl]-1H-indazol-5-yl}methylidene)-3-(trans-3-fluoro-1-methylpiperidin-4-yl)-1,3-thiazolidine-2,4-dione]
22 nM	O=C1S/C(=C\c2ccc3c(cnn3Cc3ccc(Cl)cc3C(F)(F)F)c2)C(=O)N1[C@@H]1CNCC[C@H]1O (relative stereo) [Compound 279, (5Z)-5-({1-[4-Chloro-2-(trifluoromethyl)-benzyl]-1H-indazol-5-yl}methylidene)-3-[trans-4-hydroxypiperidin-3-yl]-1,3-thiazolidine-2,4-dione]
34 nM	O=C1S/C(=C\c2ccc3c(cnn3Cc3ccc(C(F)(F)F)cc3C(F)(F)F)c2)C(=O)N1[C@@H]1CNCC[C@H]1O (relative stereo) [Compound 280, (5Z)-5-({1-[2,4-Bis(trifluoromethyl)benzyl]-1H-indazol-5-yl}methylidene)-3-[trans-4-hydroxypiperidin-3-yl]-1,3-thiazolidine-2,4-dione]
170 nM	O=C1S/C(=C\c2ccc3c(cnn3Cc3ccc(F)cc3C(F)(F)F)c2)C(=O)N1[C@@H]1CNCC[C@H]1O (relative stereo) [Compound 281, (5Z)-5-({1-[4-Fluoro-2-(trifluoromethyl)-benzyl]-1H-indazol-5-yl}methylidene)-3-[trans-4-hydroxypiperidin-3-yl]-1,3-thiazolidine-2,4-dione]
36 nM	O=C1S/C(=C\c2ccc3c(cnn3Cc3ccc(Cl)cc3C(F)(F)F)c2)C(=O)N1[C@@H]1CNC[C@H]1O (relative stereo) [Compound 316, (5Z)-5-({1-[4-Chloro-2-(trifluoromethyl)benzyl]-1H-indazol-5-yl}methylidene)-3-[trans-4-hydroxypyrrolidin-3-yl]-1,3-thiazolidine-2,4-dione]
12 nM	O=C1S/C(=C\c2ccc3c(cnn3Cc3ccc(Cl)cc3C(F)(F)F)c2)C(=O)N1[C@@H]1CNC[C@H]1F (relative stereo) [Compound 317, (5Z)-5-({1-[4-Chloro-2-(trifluoromethyl)benzyl]-1H-indazol-5-yl}methylidene)-3-[trans-4-fluoropyrrolidin-3-yl]-1,3-thiazolidine-2,4-dione]
24 nM	CN1C[C@@H](O)[C@H](N2C(=O)S/C(=C\c3ccc4c(cnn4Cc4ccc(Cl)cc4C(F)(F)F)c3)C2=O)C1 (relative stereo) [Compound 318]
21 nM	CN1C[C@@H](F)[C@H](N2C(=O)S/C(=C\c3ccc4c(cnn4Cc4ccc(Cl)cc4C(F)(F)F)c3)C2=O)C1 (relative stereo) [Compound 319, (5Z)-5-({1-[4-Chloro-2-(trifluoromethyl)benzyl]-1H-indazol-5-yl}methylidene)-3-[trans-4-fluoro-1-methylpyrrolidin-3-yl]-1,3-thiazolidine-2,4-dione]
